Test results from ChEMBL document CHEMBL1156572, “Synthesis, stereochemical identification, and selective inhibitory activity against human monoamine oxidase-B of 2-methylcyclohexylidene-(4-arylthiazol-2-yl)hydrazones” (J Med Chem, 2008).

Experiments:
[1] = target: T1, Amine oxidase [flavin-containing] A (Homo sapiens, UniProt P21397); details: read-out: INH
T1 sequence (P21397 whole entry): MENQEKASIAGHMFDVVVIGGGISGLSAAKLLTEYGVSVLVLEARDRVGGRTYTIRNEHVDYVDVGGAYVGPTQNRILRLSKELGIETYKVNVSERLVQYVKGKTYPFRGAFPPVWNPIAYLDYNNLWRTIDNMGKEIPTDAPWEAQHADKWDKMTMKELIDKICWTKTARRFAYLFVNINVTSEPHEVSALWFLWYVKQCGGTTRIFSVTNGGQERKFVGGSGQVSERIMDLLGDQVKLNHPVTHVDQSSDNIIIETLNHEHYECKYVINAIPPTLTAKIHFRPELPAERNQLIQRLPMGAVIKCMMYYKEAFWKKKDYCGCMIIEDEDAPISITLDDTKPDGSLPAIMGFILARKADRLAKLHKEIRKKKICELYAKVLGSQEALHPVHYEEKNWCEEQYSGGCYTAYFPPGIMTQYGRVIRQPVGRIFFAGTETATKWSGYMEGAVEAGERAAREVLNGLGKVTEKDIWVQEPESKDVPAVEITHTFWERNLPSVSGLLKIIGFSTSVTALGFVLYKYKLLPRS
Description: Inhibition of human recombinant MAOA before repeated washing at 500 uM

[2] = target: T1, Amine oxidase [flavin-containing] A; details: read-out: INH; remark: listed apart in the source
Description: Inhibition of human recombinant MAOA after washing at 500 uM by centrifugation-ultrafiltration method

For `O=C(NCCN1CCOCC1)c1ccc(Cl)cc1` [MOCLOBEMIDE], which inhibition at 500 µM [1] is on record?
The inhibition at 500 µM was 86.8%.

What about the inhibition at 500 µM [2] of the same compound?
The inhibition at 500 µM was 10.3%.
